According to patent US12162879B2, “Pyridopyrimidine derivative, preparation method therefor and medical use thereof” (Jiangsu Hengrui Medicine Co., Ltd., priority 2018, dated 2024):

Tests used:
[1] = molecular target: human TLR8 (Homo sapiens (Human), UniProt Q9NR97); assay: Agonist activity on human TLR8 in HEK-Blue hTLR8 stably transfected cells; assay type: cell-based; conditions: 16 hours, OD 620 nm
Experimental: The agonist effect of the compounds of the present invention on hTLR8 expressed by the HEK-Blue™ hTLR8 stably transfected cells was determined by the following experimental method.
(§1) • 1. DMEM(Gibco, 10564-029); • 2. Fetal bovine serum (GIBCO, 10099); • 3. Trypan blue solution (Sigma, T8154-100 ML); • 4. Flexstation 3 multi-function microplate reader (Molecular Devices); • 5. HEK-Blue™ hTLR8 cell line (InvivoGen, hkb-hTLR8), or HEK-Blue™ hTLR7 cell line (InvivoGen, hkb-hTLR7); • 6. HEK-Blue detection reagent (InvivoGen, hb-det3); and • 7. Phosphate buffer solution (PBS) pH 7.4 (Shanghai Basalmedia Technologies Co., Ltd., B320). II. Experimental Procedures a. Determination of Agonist Activity on Human TLR8
(§2) A bag of HEK-Blue detection dry powder was dissolved in 50 ml of water free of endotoxin, and the solution was then placed in an incubator at 37° C. for 10 minutes followed by sterile filtration to prepare a HEK-Blue detection medium. The compound was firstly formulated into a 20 mM stock solution, then diluted with pure DMSO to a maximum concentration of 6×10^6 nM, and a total of 10 points were obtained by a 3-fold gradient dilution. The above formulated compound was firstly diluted 20-fold with the medium, then 20 μl of the diluted compound was added to each well.
(§3) The supernate was removed from the HEK-Blue™ hTLR8 cells, to which 2-5 ml of pre-warmed PBS was then added. The cells were placed in an incubator for 1-2 minutes, gently pipetted, and counted by trypan blue staining. The cells were re-suspended in the HEK-Blue detection medium to adjust the concentration to 2.2×10^5 cells/ml. 180 μl of cells was added to the above 96-well plate comprising 20 μl of the compound, and incubated at 37° C. for 16 hours.
(§4) The corresponding OD values were obtained by a microplate reader at a wavelength of 620 nm, and the EC50 values of the compounds were calculated by Graphpad Prism.

[2] = molecular target: CYP2D6 (Homo sapiens (Human), UniProt P10635); assay: Inhibition of enzyme activity of CYP2D6 in human liver microsome; assay type: in vitro ADME; conditions: dextromethorphan probe substrate, 30 minutes, read-out: IC50 of the inhibition effect on CYP2D6 enzyme
Experimental: The effect of the compounds of the present invention on the enzyme activity of CYP2D6 in human liver microsome was determined by the following experimental method.
• 1. Phosphate buffer solution (PBS); • 2. NADPH (Sigma N-1630); • 3. Human liver microsome (Corning Gentest); • 4. ABI QTrap 4000 liquid chromatograph/mass spectrometer (AB Sciex); • 5. Inertsil C8-3 column, 4.6×50 mm, 5 μm (Dikma Technologies Inc., USA); and • 6. CYP probe substrate (20 μM dextromethorphan, SIGMA Q0750) and positive control inhibitor (quinidine, SIGMA D9684). II. Experimental Procedures
100 mM PBS buffer was formulated, which was then used to formulate 2.5 mg/ml human microsome solution and 5 mM NADPH solution. The 5× concentration of the compound working solution was diluted with PBS in gradients (150, 50, 15, 5, 1.5, 0.15, 0.015, 0 μM). The 5× concentration of quinidine working solution was diluted with PBS in gradients (150, 50, 15, 5, 1.5, 0.15, 0.015, 0 μM). Dextromethorphan working solution was diluted with PBS to a concentration of 20 μM.
20 μl of 2.5 mg/ml microsome solution, 20 μl of 20 μM dextromethorphan working solution, 20 μl of MgCl2 solution and 20 μl of the compound working solution (150, 50, 15, 5, 1.5, 0.15, 0.015, 0 μM, different reaction systems for each concentration) were mixed well. For the positive control group, the compound was replaced with the same concentration of quinidine. The mixture together with 5 mM NADPH solution was pre-incubated at 37° C. for 5 minutes. After 5 minutes, 20 μl of NADPH was added to each well, the reaction was initiated, and the plate was incubated for 30 minutes. All the incubated samples were present in duplicate. After 30 minutes, 250 μl of acetonitrile containing internal standard (100 ng/ml camptothecin) was added to all samples, mixed well, shaken at 800 rpm for 10 minutes, and then centrifuged at 3700 rpm for 10 minutes. 80 μl of the supernatant was taken and analyzed by LC-MS/MS.
The data was calculated by Graphpad Prism to obtain the IC50 values of the inhibition effect of the present compounds on CYP2D6 enzyme, which are shown in Table 3.

[3] = molecular target: human TLR7 (Homo sapiens (Human), UniProt Q9NYK1); assay: Agonist activity on human TLR7 in HEK-Blue hTLR7 cells; assay type: cell-based; conditions: 16 hours, OD 620 nm
Experimental: as §1, §2
as §3, with “hTLR7” for “hTLR8”
as §4

CYP2D6, sequence (P10635 whole entry): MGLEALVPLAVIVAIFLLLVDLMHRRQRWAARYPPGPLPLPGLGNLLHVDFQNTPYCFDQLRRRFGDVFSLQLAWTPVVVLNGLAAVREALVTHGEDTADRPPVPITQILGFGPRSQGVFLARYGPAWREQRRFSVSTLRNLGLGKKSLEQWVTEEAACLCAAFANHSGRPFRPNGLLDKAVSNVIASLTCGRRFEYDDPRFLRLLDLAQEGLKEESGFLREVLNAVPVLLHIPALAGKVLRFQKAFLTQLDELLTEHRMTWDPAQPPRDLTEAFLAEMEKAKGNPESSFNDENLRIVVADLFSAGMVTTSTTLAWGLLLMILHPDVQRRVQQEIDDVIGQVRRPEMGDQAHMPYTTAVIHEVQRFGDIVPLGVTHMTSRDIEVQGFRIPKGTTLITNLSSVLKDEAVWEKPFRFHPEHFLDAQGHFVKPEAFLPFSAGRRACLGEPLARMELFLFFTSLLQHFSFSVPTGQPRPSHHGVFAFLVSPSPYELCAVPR
human TLR8, sequence (Q9NR97 27-1041): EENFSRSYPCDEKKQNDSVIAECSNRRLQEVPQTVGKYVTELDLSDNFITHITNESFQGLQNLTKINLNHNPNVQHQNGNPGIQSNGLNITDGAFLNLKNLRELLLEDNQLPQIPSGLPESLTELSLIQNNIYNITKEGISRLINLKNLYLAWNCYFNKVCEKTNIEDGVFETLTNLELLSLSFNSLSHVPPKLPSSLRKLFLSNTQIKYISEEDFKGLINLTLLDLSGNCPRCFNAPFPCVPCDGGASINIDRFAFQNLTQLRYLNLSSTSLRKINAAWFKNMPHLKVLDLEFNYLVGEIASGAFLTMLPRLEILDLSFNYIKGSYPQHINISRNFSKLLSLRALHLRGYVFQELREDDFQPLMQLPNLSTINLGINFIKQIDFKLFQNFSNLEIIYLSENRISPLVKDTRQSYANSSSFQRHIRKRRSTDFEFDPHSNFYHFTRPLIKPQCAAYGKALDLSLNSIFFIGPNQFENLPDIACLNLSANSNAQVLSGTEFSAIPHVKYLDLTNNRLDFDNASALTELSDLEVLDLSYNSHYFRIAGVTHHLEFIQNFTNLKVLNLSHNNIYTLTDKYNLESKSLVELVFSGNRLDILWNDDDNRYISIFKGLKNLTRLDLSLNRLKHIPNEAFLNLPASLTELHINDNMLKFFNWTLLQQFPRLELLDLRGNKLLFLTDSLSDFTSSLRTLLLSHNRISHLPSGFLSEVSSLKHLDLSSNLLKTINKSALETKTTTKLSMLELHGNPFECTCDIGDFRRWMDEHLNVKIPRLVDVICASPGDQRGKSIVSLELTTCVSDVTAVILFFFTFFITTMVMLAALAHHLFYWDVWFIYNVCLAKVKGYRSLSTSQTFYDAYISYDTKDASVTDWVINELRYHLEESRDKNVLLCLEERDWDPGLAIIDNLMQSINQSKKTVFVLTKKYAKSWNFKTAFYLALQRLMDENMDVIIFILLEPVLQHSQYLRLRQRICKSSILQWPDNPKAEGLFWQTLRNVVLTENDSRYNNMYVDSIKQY
human TLR7, sequence (Q9NYK1 27-1049): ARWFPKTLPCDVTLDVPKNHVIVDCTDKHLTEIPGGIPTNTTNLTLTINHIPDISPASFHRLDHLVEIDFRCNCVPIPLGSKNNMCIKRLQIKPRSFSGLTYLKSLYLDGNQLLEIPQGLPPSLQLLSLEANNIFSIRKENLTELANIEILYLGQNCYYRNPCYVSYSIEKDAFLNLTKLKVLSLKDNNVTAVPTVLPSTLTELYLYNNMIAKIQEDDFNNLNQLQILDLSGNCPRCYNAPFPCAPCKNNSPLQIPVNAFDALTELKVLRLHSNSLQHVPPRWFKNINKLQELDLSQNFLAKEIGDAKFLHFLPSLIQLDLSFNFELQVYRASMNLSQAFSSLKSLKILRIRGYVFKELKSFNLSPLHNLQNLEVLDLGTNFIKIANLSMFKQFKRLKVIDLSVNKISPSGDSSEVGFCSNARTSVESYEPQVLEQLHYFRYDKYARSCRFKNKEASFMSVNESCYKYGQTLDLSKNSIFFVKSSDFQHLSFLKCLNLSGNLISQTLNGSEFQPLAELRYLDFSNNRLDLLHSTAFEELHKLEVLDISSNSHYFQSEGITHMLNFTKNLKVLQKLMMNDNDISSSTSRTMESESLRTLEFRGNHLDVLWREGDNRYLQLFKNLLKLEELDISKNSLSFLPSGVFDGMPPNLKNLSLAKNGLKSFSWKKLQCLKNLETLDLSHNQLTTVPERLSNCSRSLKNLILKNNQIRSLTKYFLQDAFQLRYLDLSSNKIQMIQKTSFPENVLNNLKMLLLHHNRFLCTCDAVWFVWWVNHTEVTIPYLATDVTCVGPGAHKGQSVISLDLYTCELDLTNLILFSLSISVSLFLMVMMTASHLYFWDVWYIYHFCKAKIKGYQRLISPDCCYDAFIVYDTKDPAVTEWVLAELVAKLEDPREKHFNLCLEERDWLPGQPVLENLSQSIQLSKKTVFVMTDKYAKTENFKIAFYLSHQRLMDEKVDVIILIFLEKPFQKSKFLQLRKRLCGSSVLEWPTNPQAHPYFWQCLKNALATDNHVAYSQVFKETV

SMILES	EC50 [1] [nM]	Emax [1] [%]	IC50 [2] [µM]	EC50 [3] [µM]	Emax [3] [%]
CCCCC(C)(CO)Nc1nc(N)nc2cc(-c3ccc(CN4CCN(C)CC4)nc3)cnc12 (centres unmarked) [Example 5, 2-((2-Amino-7-(6-((4-methylpiperazin-1-yl)methyl)pyridin-3-yl)pyrido[3,2-d]pyrimidin-4-yl)amino)-2-methylhexan-1-ol]	270	110	> 30	> 30	14
CCCC[C@](C)(CO)Nc1nc(N)nc2cc(-c3ccc(CN4CCN(C)CC4)nc3)cnc12 [Example 6, (R)-2-((2-Amino-7-(6-((4-methylpiperazin-1-yl)methyl)pyridin-3-yl)pyrido[3,2-d]pyrimidin-4-yl)amino)-2-methylhexan-1-ol]	100	107	> 30	> 30	14

Continued by falling EC50 [1], values first:

EC50 [1] [nM]	Emax [1] [%]	IC50 [2] [µM]	EC50 [3] [µM]	Emax [3] [%]	SMILES
100	97	> 30	> 30	12	CCCC[C@](C)(CO)Nc1nc(N)nc2cc(-c3ccc(C4CCN(C)CC4)nc3)cnc12 [Example 4, (R)-2-((2-Amino-7-(6-(1-methylpiperidin-4-yl)pyridin-3-yl)pyrido[3,2-d]pyrimidin-4-yl)amino)-2-methylhexan-1-ol]
80	106	> 30	–	–	CCCC[C@](C)(CO)Nc1nc(N)nc2cc(-c3ccc(CN4CCCC4)nc3)cnc12 [Example 2, (R)-2-((2-Amino-7-(6-(pyrrolidin-1-ylmethyl)pyridin-3-yl)pyrido[3,2-d]pyrimidin-4-yl)amino)-2-methylhexan-1-ol]
40	114	> 30	> 19	73	CCCC[C@](C)(CO)Nc1nc(N)nc2cc(-c3cnc(C4CCN(C)CC4)nc3)cnc12 [Example 8, (R)-2-((2-Amino-7-(2-(1-methylpiperidin-4-yl)pyrimidin-5-yl)pyrido[3,2-d]pyrimidin-4-yl)amino)-2-methylhexan-1-ol]
